# Test results: article PMC7031302, “Design and synthesis of new energy restriction mimetic agents: Potent anti-tumor activities of hybrid motifs of aminothiazoles and coumarins” (Scientific Reports, 2020)
# Like-named read-outs stand apart in the source and are kept apart here.
# How the values were obtained:
# Type in all cases: cell-based, Human
# HCT116 [1] = experiment: MTT cell viability, HCT116; details: 72 h, MTT assay, mean ± SD (n = 6), read-out: half-maximal inhibitory concentration (IC50) HCT116
# Protocol: (§1) The potential cytotoxicity of 24 candidate compounds was initially evaluated at a single concentration level (5 μM). Then a full dose-response curve was plotted for each compound against different colorectal cancer cell lines (HCT116 and HT-29) by MTT assay after 72 h treatments. 4-hydroxycoumarin, OSU-CG5, and OSU-CG12 were used as positive controls. […] Compounds 9b, 9c, 9f, 9i, 11b, and 11c were selected for further studies to determine the full dose-response survival curves using different concentrations (0.1–20 µM) against CRC cell lines and normal fibroblast cell line (F180) at different time points (Fig. 2A–2F and supplementary material Page S63 and S64).
# (§2) Human colorectal carcinoma cell lines (HCT116) and (HT-29) were obtained from the European Collection of Cell Cultures (ECACC, UK). The cell lines were cultured in Roswell Park Memorial Institute medium (RPMI-1640, Sigma-Aldrich-St. Louis, MO, USA) supplemented with 10% fetal bovine serum (Sigma-Aldrich-St. Louis, MO, USA) and 1% penicillin/streptomycin (Sigma-Aldrich- Louis, MO, USA). F180 cell line (Human Normal Fibroblast), was kindly given by professor Ekkehard Dikomey (University Cancer Center, Hamburg University, Hamburg, Germany) and were cultured in Dulbecco’s Modified Eagle’s medium (DMEM, Sigma-Aldrich-St. Louis, MO, USA) supplemented with 10% fetal bovine serum (Sigma-Aldrich-St. Louis, MO, USA) and 1% penicillin/streptomycin (Sigma-Aldrich- Louis, MO, USA). All cell incubations were done at 37 °C in a humidified atmosphere of 5% CO2.
# (§3) Cell viability was assessed using, 3-(4,5-dimethylthiazol-2-yl)-2,5-diphenyltetrazolium bromide (MTT) assay as previously described. In summary, cancer cell lines or F180 were seeded in complete medium at the density of 3 × 10^3/well and 5 × 10^3/well respectively in 96 well flat-bottom plates. After 24 h, cells were incubated with the candidate compounds at the indicated concentration for (24, 48 or 72 h). DMSO was used as vehicle control and 4-Hydroxycoumarin was purchased from (Sigma-Aldrich, St. Louis, MO, USA) and Cisplatin from Hospira UK Ltd. At the end of treatment, the media were aspirated from each well and incubated with 200 µL of MTT tetrazolium dye (Sigma-Aldrich, St. Louis, MO, USA) at a final concentration of 0.5 mg/ml for 2 h at 37 °C. The reduced MTT crystals were solubilized in 200 µl/well of DMSO and the absorbance was measured at 570 nm using a microplate reader (Thermo-Scientific, Vantaa, Finland).
# [2] = test system: Caspase 3/7 activities in HCT116 cells; experiment: Caspase 3/7 activity assay, HCT116; details: HCT116, 72 h
# Protocol: (§4) Based on this, the energy restriction mediated anticancer activity of the new coumarin tagged aminothiazole derivatives was investigated. The expression levels of PARP, p-Akt, Akt, p-AMPK, AMPK, β-TrCP, LC3A/B-I, LC3A/B-II, caspase-3, cyclin D1, and Bcl-2 proteins were determined by Western blot analysis after 72 h treatment of HT-29 and HCT116 at different concentrations based on the IC50 values of each compound (Fig. 3A,B). […] Moreover, the treatment with 9b and 9f induced caspase 3/7 activation, which was detected by caspase 3/7 activity assay and confirmed by Western blot. The activation of caspases was significant in 9b in both cell lines and significant with 9f in HCT116 cells only and minimal in HT-29 cells (Fig. 3C,D). On the other hand, both 9b and 9f induced dose-dependent proteolytic processing of PARP. […] Besides, the protein expression level of the anti-apoptotic protein, Bcl-2, was reduced in HCT116 upon treatment with both compounds.
# Caspase-3/7 activities in HT-29 and HCT116 cells treated with candidate compounds were measured using Caspase-Glo 3/7 assay kit (Promega, Madison, WI, USA) following the manufacturer’s instructions. […] 50 µL of lysate and 50 µL of caspase substrate were added to a white opaque 96-well plate, and the luminescence was measured by Varioskan Flash multimode reader (Thermo-Scientific, Vantaa, Finland)
# HCT116 [3] = experiment: Glucose uptake assay, HCT116; details: HCT116, 16 h treatment, dose-dependent
# Description: According to previous studies, ERMAs inhibited glucose utilization in cancer cells[13],[19]. Therefore, we investigated glucose uptake (Fig. 5A) upon treatment with 9b and 9f in HT-29 and HCT116 cells at different concentrations based on the IC50 of each compound. […] This effect is known to result in the accumulation of reactive oxygen species (ROS) and could play a role in glucose deprivation-induced cytotoxicity and oxidative stress in cancer cells. […] The observed increase in ROS levels could lead to oxidative stress and extensive cell death in the absence of NADPH detoxification.
# CRC cells (1 × 10^4) were seeded into a 96-well plate overnight. Cells were treated with test compounds or vehicle (negative control) glucose-free RPMI-1640 medium for 16 h; then, the cells were incubated with 2 mM 2-DG for 10 minutes. Eventually, glucose uptake of cells was measured using Glucose Uptake-Glo Assay (Promega, Madison, WI, USA) according to the manufacturer’s instructions. Luminescence was measured post 2 h of incubation at room temperature using Varioskan Flash multimode reader (Thermo Scientific). Glucose uptake was normalized to the total protein content in the samples using DC protein assay kit (Bio-Rad, Hercules, CA, USA).
# HCT116 [4] = experiment: Western blot analysis, HCT116; details: for expression of LC3A-II and LC3B-II: HCT116 (CRC cell lines)
# Protocol: as §4
# Following 72 h of treatment, cells were lysed and the extracted proteins were quantified using DC protein assay kit (Bio-Rad, Hercules, CA, USA) following the manufacturer’s instructions. Proteins were resolved on 8% or 12% SDS-poly-acrylamide gels, then transferred onto a nitrocellulose membrane using a semi-dry transfer cell. The membranes were blocked in TBS-T containing 5% non-fat milk for 1 h and incubated overnight at 4 °C overnight with indicated primary antibodies (Cell Signaling Technologies, Beverly, MA, USA) and then incubated with goat anti-mouse or anti-rabbit secondary antibody (Cell Signaling Technologies, Beverly, MA, USA) for 1 h at room temperature. Detection was done using chemiluminescence substrate (Bio-Rad, Hercules, CA, USA). β-actin (Cell Signaling Technologies, Beverly, MA, USA) was used as a loading control.
# The blots were captured with ChemiDoc Imaging System (Bio-Rad, Hercules, CA, USA) and bands were visualized with the Image Lab v5.2.1 software (Bio-Rad, Hercules, CA, USA).
# [5] = test system: colorectal cancer cell lines, HCT116 and HT-29; experiment: MTT cell viability, colorectal cancer cell lines (summary statements); details: for anticancer activities in initial screening, in words: HT-29 and HCT116 cancer cell lines
# Protocol: as §1, §2, §3
# [6] = HCT116, higher concentrations, except at doses 1 and 2 µM where induced p-mTOR was observed
Structure (SMILES),IC50 (HCT116 [1]),"IC50 (HCT116 [1]; Homo sapiens, HCT-116, 72 h)",activation of caspases (caspase 3/7) [2],glucose uptake (HCT116 [3]),"expression of LC3A-II and LC3B-II (HCT116 [4]; 72 h, Western blot)","p-mTOR and p-p70S6K levels (HCT116 [4]; HCT116, 0.5 µM, 72 h, Western blot)","AMPK activation through phosphorylation (HCT116 [4]; HCT116, 72 h, Western blot)","PARP cleavage (HCT116 [4]; HCT116, 72 h, Western blot)","expression of β-TrCP and cyclin D (HCT116 [4]; HCT116, 72 h, Western blot)","protein expression level of Bcl-2 (HCT116 [4]; HCT116, 72 h, Western blot)",p-mTOR and p-p70S6K levels (HCT116 [4]; [6]),"anticancer activities in initial screening, in words [5]","IC50 ([5]; both cell lines, summary statement)","Akt phosphorylation (HCT116 [4]; HCT116, high concentrations, 72 h, Western blot)"
"Cc1cc(=O)oc2cc(Nc3nc(-c4ccc(Br)cc4)cs3)ccc12 [Compound 9b, 7-(4-(4-Bromophenyl)thiazol-2-ylamino)-4-methyl-2H-chromen-2-one]",530 ± 77 nM,380 nM,significant,inhibited significantly,induced the expression of LC3A-II and LC3B-II,initial increase,enhancement of AMPK activation,induced PARP cleavage,dose-dependent downregulation,reduced,decrease,significant anticancer activities,< 600 nM,–
"Cc1cc(=O)oc2cc(Nc3nc(-c4cccc([N+](=O)[O-])c4)cs3)ccc12 [Compound 9f, 4-Methyl-7-(4-(3-Nitrophenyl)thiazol-2-ylamino)-2H-chromen-2-one]",2560 ± 553 nM,3960 nM,significant,inhibited significantly,induced the expression of LC3A-II and LC3B-II,–,enhancement of AMPK activation,–,–,reduced,decrease,significant anticancer activities,–,induced Akt phosphorylation
